Reference: a melting point compilation (Tetko et al.; mined from patent text by program, amines drawn as free bases though some values may be those of a salt)

Row | Structure (SMILES) | melting point
1 | CCOC(=O)c1cn(C)nc1OCc1ccc(OCc2nc(-c3ccccc3)oc2C)c(OC)c1 | 134 to 135 °C
2 | CC(C)c1cc2nc(N)sc2cc1Sc1ccc(CCc2ccc(F)cc2)c(CCC2=C(O)CC(C(C)C)OC2=O)c1 (stereo not given) | 204 to 206 °C
3 | COc1cc2c(cc1Nc1ncc(Cl)c(Nc3ccc(N(C)C)cc3OC)n1)CCN(CC(=O)N1CCN(C)CC1)CC2 | 145 °C
4 | Nc1ncc2c(n1)-c1ccc(Cl)cc1C(c1ccccc1Cl)=NC2 | 240 to 241 °C
5 | O=C(Cc1c[nH]c2ccccc12)N1CCN(C(=O)c2cc(C(F)(F)F)cc(C(F)(F)F)c2)[C@H](Cc2ccccc2)C1 | 201 to 210 °C
6 | CCOC(=O)c1c(C)cc2c(=O)n(-c3cccc(Cl)c3)c(C)nc2c1C | 150 to 152 °C
7 | COc1cc(C(=O)N2CCC(CCN3CCC(C(=O)c4nc5ccccc5n4Cc4ccccn4)CC3)(c3ccccc3)C2)cc(OC)c1OC (stereo not given) | 84 to 89 °C
8 | O=C(O)C1CC(=O)N(c2ccccc2)C1c1cccnc1 (stereo not given) | 229 to 232 °C
9 | C#CCOc1cc(-c2ncc(C(F)(F)F)cc2Cl)ccc1Cl | 102 to 103 °C
10 | COC(=O)NC1CCC(Nc2ncc3ncnc(Nc4ccc(F)c(Cl)c4)c3n2)CC1 (stereo not given) | 230 to 235 °C
11 | O=C(O)Cc1ccc2c(c1)CCCOO2 | 99 to 101 °C
12 | COc1cc(C(C)C)c(Oc2c(N)nc(N)nc2C2COC(C)(C)OC2)cc1I | 167 to 168 °C
13 | CCCCCCCCCCCCCCCC(=O)OC[C@H]1OCC(=NO)[C@@H](O)[C@@H]1O | 97 to 104 °C
14 | Cc1ccc(Nc2cc(C)nc(-n3nc(C)cc3C)n2)cc1 | 135 to 138 °C
15 | CCCCn1cc(/C=C(\Cc2cc3c(cc2OC)OCO3)C(=O)O)c(-c2ccc(OC)cc2OCc2ccccc2C(=O)O)n1 | 226 to 227 °C
16 | CCCC(=O)Nc1c(C)c(C)c2c(c1C)C(c1ccc(C)cc1)C(C)(C)O2 (stereo not given) | 138 to 139 °C
17 | CN(C(=O)c1ccc(CS(=O)(=O)Cn2cnc3ccccc32)cc1)C1CCCCC1 | 142 to 143 °C
18 | CON=C(C1=CN(C)CC=C1)C(F)(F)F | 140 to 143 °C
19 | O=C1COCCOCC(=O)NCCSCCSCCN1 | 145 °C
20 | Oc1cc(O)nc(C2CC2)n1 | > 290 °C
21 | CO[C@@H]1CN(c2ccc3c(=O)c(C(=O)O)cn(-c4nccs4)c3n2)C[C@H]1NCC(=O)OC(C)(C)C (relative stereo) | 185 to 188 °C
22 | CCOc1cc2ncc(C#N)c(NCc3ccc(OC)c(OC)c3)c2cc1OCC | 200 to 204 °C
23 | COc1cc(-c2nc3ccc(OCCCl)cc3n2Cc2ccccc2)cc(OC)c1OC | 129 °C

Row | Structure (SMILES) | melting point
24 | CC(C)CNC(=O)COc1ccn2nc(-c3ccccc3)c(-c3ccc(=O)n(C(C)C)n3)c2c1 | 168 °C
25 | COC(=O)C1OC(OC(=N)C(Cl)(Cl)Cl)C(OC(=O)C(C)C)C(OC(=O)C(C)C)C1OC(=O)C(C)C (stereo not given) | 108 °C
26 | Cc1cccc(-c2cc(O)c(Sc3ccccc3C(C)C)c(=O)o2)c1 | 161 to 162 °C
27 | CC(C)(C)C(=O)Nc1cnc(C(=O)CO)cn1 | 169 to 172 °C
28 | Cc1c(SCCCSc2sccc2[N+](=O)[O-])ccnc1CO | 134 to 138 °C
29 | CCOC(=O)c1ccc(C#CC2(O)CN3CCC2CC3)cc1 (stereo not given) | 176 to 177 °C
30 | CCOC(=O)CCc1ccc(CCNS(=O)(=O)CCc2ccc(Cl)cc2)cc1 | 77 to 78 °C
31 | S=C(NCc1ccccc1)N1CCc2c([nH]c3ccccc23)C1c1ccc2c(c1)OCO2 (stereo not given) | 205 to 207 °C
32 | CC(=C(Br)Br)c1cn(-c2c(Cl)cc(C(F)(F)F)cc2Cl)nc1C#N | 119 to 122 °C
33 | CC1=C(C(C)O)C(C)(C)CCC1=NO (stereo not given) | 131 to 135 °C
34 | Cc1nc(N)nc(N)c1N1CCN(c2ccc(C=NOCC(=O)OCCc3ccccc3)cc2)CC1 | 255 to 257 °C
35 | COC(=O)c1ccc(Cc2cn(CC(=O)N(C)C)c3ccc(NC(=O)CC4CCCC4)cc23)c(OC)c1 | 129 to 132 °C
36 | CC(/C=C/C(=O)OC(C)(C)C)=C\c1ccc(N)cc1 | 99 to 101 °C
37 | CCCn1nc(C(F)(F)CCC)nc1Cc1ccc(-c2ccccc2-c2nnn[nH]2)nc1 | 140 to 141 °C
38 | CN1CCN(Cc2cc(C(=O)c3cccs3)cc(C(C)(C)C)c2O)CC1 | 118 to 119 °C
39 | Cc1nc2cc3c(cc2s1)C1(CO3)C(=O)N(Cc2ccccn2)c2ccccc21 (stereo not given) | 249 to 250 °C
40 | CCc1nc2c(N)nc3ccccc3c2n1CC#Cc1ccc(OC)cc1 | 179 to 181 °C
41 | COC(=O)CCCCCCc1ncsc1C=O | 60 to 62 °C
42 | CCOC(=O)Cc1ccc(NC(=O)c2cc(C(C)C)c(C(C)C)o2)cc1 | 91.5 to 92.5 °C
43 | COC(C)(C)C#Cc1ncn2c1CN(C)C(=O)c1ccccc1-2 | 136 to 137 °C
44 | O=C(NC1CCCCC1)c1c(O)c2ccccc2n(Cc2ccc(F)cc2)c1=O | 168 °C
45 | CCOC(=O)c1cnn2c1nc(N)c1cnc3c(cnn3CC)c12 | 331 to 332 °C
46 | CNC(=O)c1c(-c2ccccc2)oc(-c2ccccc2)cc1=O | 196 to 197 °C

Row | Structure (SMILES) | melting point
47 | CCCOC(=O)c1c(C)nc2cc(OC)c(OC)cc2c1-c1ccc(OC)c(OC)c1 | 153 to 155 °C
48 | CN(C)S(=O)(=O)c1cc([N+](=O)[O-])ccc1C(=O)O | 160 to 163 °C
49 | N#Cc1nc(C#Cc2ccccc2)c(C#Cc2ccccc2)nc1C#N | 226 to 227 °C
50 | O=C(Oc1ccc(N2c3ccccc3S(=O)(=O)c3ccccc32)cc1)c1ccccc1 | 233 to 235 °C
51 | O=S1(=O)NC=Nc2c(Br)cc(Br)cc21 | 289 to 292 °C
52 | CC(Oc1ccc2oc3cc(Cl)ccc3c2c1)C(=O)O (stereo not given) | 170 to 172 °C
53 | Nc1nc2c(ncn2OCCCP(=O)(O)O)c(=O)[nH]1 | > 300 °C
54 | Cc1nnc(-c2ccnc(Nc3cc(F)ccc3F)c2)o1 | 202 to 203 °C
55 | Cc1c(-c2ccccc2)n(-c2ccccc2)c(-c2ccc(C#N)cc2)cc1=O | 229 to 233 °C
56 | O=C(NCCCCCCNC(=O)c1ccc2c(c1)OCO2)c1ccc2c(c1)OCO2 | 183 to 185 °C
57 | CS(=O)(=O)c1ccc(-c2cnn(-c3cccc(Cl)c3)c(=O)c2SCc2ccco2)cc1 | 140 to 149 °C
58 | NP(N)(=S)N1CCCC1 | 95 to 99 °C
59 | O=C(O)COc1c2ccccc2c(-c2cc(Br)c(OC(Cc3ccccc3)C(=O)O)c(Br)c2)c2c1sc1ccccc12 (stereo not given) | 110 to 120 °C
60 | CC(CCCC(C)(C)O)C1CCC2C3CC=C4CCCC(O)C4(C)C3CCC12C (stereo not given) | 127 to 128 °C
61 | CC(=O)OC1CSC(Oc2cncc(-c3ccc(C)c(F)c3)c2)C(OC(C)=O)C1OC(C)=O (stereo not given) | 159 °C
62 | COC(C)c1cc(S(N)(=O)=S)sc1C (stereo not given) | 86 to 94 °C
63 | CC1CC(c2ncc3nccc-3[nH]2)C(C)C(c2ccccc2)N1 (stereo not given) | 131 to 132 °C
64 | O=C1c2ccccc2C(=O)C1(CCN1CCC(c2noc3cc(F)ccc23)CC1)c1ccccc1 | 149 to 150 °C
65 | CN(C)CCCCNC(=O)c1ccccc1-c1nnc(CSCCOc2ccccc2)o1 | 62 to 65 °C
66 | CCCCN1C(=O)C(=O)C(C)=C(C#N)C1=O | 134 to 135 °C
67 | O=[N+]([O-])c1cc2c(Nc3ccc(F)c(Cl)c3)ncnc2cc1OC1CCC1 | 235 °C

Second part, the molecule after the results:

Row | melting point | Structure (SMILES)
68 | 190 to 193 °C | O=C(O)c1ccc2cn(C3CCCC3)nc2c1
69 | 123 °C | COc1cc(-c2ccc(C)cc2)cc2oc(=O)c(C)c(C)c12
70 | 120 to 122 °C | CN(O)C(=O)CCc1ccc2c(c1)Cc1ccccc1CO2
71 | 192 to 196 °C | Cc1cc(-n2ccnc2)c2cccc(O)c2n1
72 | 147 to 148 °C | COc1ccc2[nH]c(S(=O)Cc3ncc(C)c(N4CCOCC4)c3Cl)nc2c1 (stereo not given)
73 | 194 to 195 °C | Cc1sc(N)nc1-c1cccc2ccccc12
74 | 98 to 100 °C | CC(C)C1(c2ccccc2OCCCCBr)C(=O)N(C)c2ccccc21 (stereo not given)
75 | 195 °C | Nc1cc(OCc2ccccc2)nc(N)n1
76 | 110 to 111 °C | C[C@H]1C[C@@](O)(c2cccc(Sc3ccc4c(c3)CC(=O)N4C)c2)CCO1
77 | 72 to 75 °C | CC1(C)COC(c2ccccc2-c2ccc(CCl)cc2)=N1
78 | 157 to 158 °C | CC(Cl)C(=O)c1ccc2c(c1)CC(=O)N2 (stereo not given)
79 | 108 to 111 °C | CC1(C)OCCN1c1nc(-c2ccc(C#N)cc2)cs1
80 | 93 to 94 °C | O=S(=O)(Cc1nnc(-c2ccc3c(c2)CCO3)o1)c1cccc(F)c1
81 | 215 to 216 °C | Cc1nc(N)sc1-c1ccnc(Nc2cccc(S(=O)(=O)N3CCOCC3)c2)n1
82 | 187 to 189 °C | Cc1cc(CNC(=O)c2nc3n(c(=O)c2O)CCN3C)ccc1F
83 | 99 to 101 °C | Fc1ccc(Oc2ccnc3c(Cl)cccc23)c(Cl)c1
84 | 48 to 50 °C | COC(=O)c1cc(OC)c2ccccc2c1OC

Row | melting point | Structure (SMILES)
85 | 120 to 121 °C | CC(C)Cn1nc(-c2ccccc2)cc(C(=O)O)c1=O
86 | 180 to 185 °C | COc1cc2c(cc1OC)C(C)=[N+]([O-])C(c1cccs1)N2 (stereo not given)
87 | 167 to 168 °C | COc1ccc(C2Nc3ccccc3C(=O)N2c2ccc(F)c(C(F)(F)F)c2)cn1 (stereo not given)
88 | 110 °C | COc1cccc2c1SCCC2=O
89 | 254 °C | Cc1cc2n(C)c(=O)c3cnc(Cl)cc3n2n1
90 | 98 °C | COc1ccc2cccc3c2c1C(CCNC(C)=O)CC3 (stereo not given)
91 | 219 to 221 °C | COc1ccc(-c2ccc(Cl)c(C(=O)NCC34CC5CC(CC(C5)C3)C4)c2)c(C(=O)O)c1
92 | 94 to 96 °C | COc1ccccc1C(=O)Nc1ccc(Cl)c(C(=O)OC(C)C)c1
93 | 258 to 260 °C | CC(C)(C(=O)O)n1c(=O)[nH]c2cccc(F)c2c1=O
94 | 149 to 150 °C | Cc1ccc(COc2ccn(Cc3ccccc3)c(=O)c2Br)cc1
95 | 203 to 204 °C | CCCOc1ccccc1-c1nc2nc(-c3ccccc3)ncc2c(=O)[nH]1
96 | 117 to 119 °C | N=Cc1ccccc1[N+](=O)[O-]
97 | 106 to 109 °C | CC(=O)CC(=O)OCN1C(=O)c2ccccc2C1=O
98 | 58 to 60 °C | O=C1CCOc2ccc(Oc3ccccc3)cc21
99 | 153 to 155 °C | C=CCOc1ccc(C)c2c1C(C)(C)C(=O)N2
100 | 97 to 99 °C | O=C1C(=CO)CSc2c(Cl)cccc21
